# Source: the CheMixHub viscosity set
# ± gives the uncertainty stated by the source.
# Test: xn = mol fraction of the nth substance listed
smiles,measurement,setting,value
[Cl-].[Cl-].[Cl-].[Cl-].[Sn+4] + O=C(O)CCl,viscosity,"323.15 K, 101 kPa, x1 = 0.025",3.305 ± 0.033 mPa·s
same,viscosity,"323.15 K, 101 kPa, x1 = 0.0506",3.944 ± 0.036 mPa·s
same,viscosity,"323.15 K, 101 kPa, x1 = 0.0951",4.193 ± 0.042 mPa·s
same,viscosity,"323.15 K, 101 kPa, x1 = 0.0957",4.1 ± 0.041 mPa·s
same,viscosity,"323.15 K, 101 kPa, x1 = 0.1491",4.17 ± 0.042 mPa·s
same,viscosity,"323.15 K, 101 kPa, x1 = 0.2041",3.921 ± 0.039 mPa·s
same,viscosity,"323.15 K, 101 kPa, x1 = 0.2511",2.927 ± 0.031 mPa·s
same,viscosity,"323.15 K, 101 kPa, x1 = 0.3456",2.003 ± 0.02 mPa·s
same,viscosity,"323.15 K, 101 kPa, x1 = 0.4928",1.41 ± 0.013 mPa·s
same,viscosity,"323.15 K, 101 kPa, x1 = 0.6663",0.948 ± 0.009 mPa·s
same,viscosity,"323.15 K, 101 kPa, x1 = 0.7708",0.836 ± 0.008 mPa·s
CCCCCC[N+]1(C)CCOCC1.[Br-] + O=S1(=O)CCCC1,viscosity,"293.15 K, 100 kPa, x1 = 0.0998",42.16 ± 0.95 mPa·s
same,viscosity,"298.15 K, 100 kPa, x1 = 0.0998",34.36 ± 0.78 mPa·s
same,viscosity,"303.15 K, 100 kPa, x1 = 0.0998",28.35 ± 0.64 mPa·s
same,viscosity,"308.15 K, 100 kPa, x1 = 0.0998",23.7 ± 0.54 mPa·s
same,viscosity,"313.15 K, 100 kPa, x1 = 0.0998",20.06 ± 0.45 mPa·s
same,viscosity,"318.15 K, 100 kPa, x1 = 0.0998",17.1 ± 0.39 mPa·s
same,viscosity,"323.15 K, 100 kPa, x1 = 0.0998",14.72 ± 0.33 mPa·s
O=C1CCCN1 + OCCCO,viscosity,"308.15 K, 101 kPa, x1 = 0.1929",22.6 ± 1 mPa·s
same,viscosity,"308.15 K, 101 kPa, x1 = 0.3918",17.83 ± 0.82 mPa·s
same,viscosity,"308.15 K, 101 kPa, x1 = 0.4915",15.95 ± 0.74 mPa·s
same,viscosity,"308.15 K, 101 kPa, x1 = 0.5918",14.51 ± 0.68 mPa·s
same,viscosity,"308.15 K, 101 kPa, x1 = 0.6929",12.9 ± 0.61 mPa·s
same,viscosity,"308.15 K, 101 kPa, x1 = 0.897",10.06 ± 0.49 mPa·s
O=C1CCCN1 + OCCO,viscosity,"298.15 K, 101.33 kPa, x1 = 0.04482",16.51 ± 0.34 mPa·s
same,viscosity,"298.15 K, 101.33 kPa, x1 = 0.1032",16.1 ± 0.33 mPa·s
same,viscosity,"298.15 K, 101.33 kPa, x1 = 0.2107",15.53 ± 0.32 mPa·s
same,viscosity,"298.15 K, 101.33 kPa, x1 = 0.3059",15.19 ± 0.31 mPa·s
same,viscosity,"298.15 K, 101.33 kPa, x1 = 0.3998",14.98 ± 0.31 mPa·s
same,viscosity,"298.15 K, 101.33 kPa, x1 = 0.4988",14.85 ± 0.31 mPa·s
same,viscosity,"298.15 K, 101.33 kPa, x1 = 0.6042",14.73 ± 0.31 mPa·s
same,viscosity,"298.15 K, 101.33 kPa, x1 = 0.6866",14.62 ± 0.3 mPa·s
same,viscosity,"298.15 K, 101.33 kPa, x1 = 0.7865",14.39 ± 0.3 mPa·s
same,viscosity,"298.15 K, 101.33 kPa, x1 = 0.9015",13.95 ± 0.29 mPa·s
same,viscosity,"298.15 K, 101.33 kPa, x1 = 0.9371",13.76 ± 0.29 mPa·s
same,viscosity,"308.15 K, 101.33 kPa, x1 = 0.05148",11.22 ± 0.23 mPa·s
same,viscosity,"308.15 K, 101.33 kPa, x1 = 0.2079",10.64 ± 0.22 mPa·s
same,viscosity,"308.15 K, 101.33 kPa, x1 = 0.3048",10.4 ± 0.22 mPa·s
same,viscosity,"308.15 K, 101.33 kPa, x1 = 0.3932",10.24 ± 0.21 mPa·s
same,viscosity,"308.15 K, 101.33 kPa, x1 = 0.4992",10.12 ± 0.21 mPa·s
same,viscosity,"308.15 K, 101.33 kPa, x1 = 0.9078",9.505 ± 0.2 mPa·s
same,viscosity,"308.15 K, 101.33 kPa, x1 = 0.952",9.341 ± 0.2 mPa·s
same,viscosity,"318.15 K, 101.33 kPa, x1 = 0.04423",7.91 ± 0.16 mPa·s
same,viscosity,"318.15 K, 101.33 kPa, x1 = 0.1016",7.746 ± 0.16 mPa·s
same,viscosity,"318.15 K, 101.33 kPa, x1 = 0.2104",7.505 ± 0.16 mPa·s
same,viscosity,"318.15 K, 101.33 kPa, x1 = 0.318",7.342 ± 0.15 mPa·s
same,viscosity,"318.15 K, 101.33 kPa, x1 = 0.3931",7.265 ± 0.15 mPa·s
same,viscosity,"318.15 K, 101.33 kPa, x1 = 0.4945",7.195 ± 0.15 mPa·s
same,viscosity,"318.15 K, 101.33 kPa, x1 = 0.592",7.15 ± 0.15 mPa·s
same,viscosity,"318.15 K, 101.33 kPa, x1 = 0.7035",7.089 ± 0.15 mPa·s
same,viscosity,"318.15 K, 101.33 kPa, x1 = 0.7949",7.002 ± 0.15 mPa·s
same,viscosity,"318.15 K, 101.33 kPa, x1 = 0.8888",6.855 ± 0.14 mPa·s
same,viscosity,"318.15 K, 101.33 kPa, x1 = 0.9417",6.74 ± 0.14 mPa·s
CCCCCC[N+]1(C)CCOCC1.[Br-] + OCCOCCO,viscosity,"293.15 K, 100 kPa, x1 = 0.2003",88.12 ± 2.5 mPa·s
same,viscosity,"298.15 K, 100 kPa, x1 = 0.2003",66.83 ± 1.6 mPa·s
same,viscosity,"303.15 K, 100 kPa, x1 = 0.2003",51.75 ± 1.2 mPa·s
same,viscosity,"308.15 K, 100 kPa, x1 = 0.2003",40.85 ± 0.96 mPa·s
same,viscosity,"313.15 K, 100 kPa, x1 = 0.2003",32.85 ± 0.77 mPa·s
same,viscosity,"318.15 K, 100 kPa, x1 = 0.2003",26.75 ± 0.63 mPa·s
same,viscosity,"323.15 K, 100 kPa, x1 = 0.2003",22.17 ± 0.52 mPa·s
CCCCCC[N+]1(C)CCOCC1.[Br-] + OCCOCCOCCO,viscosity,"293.15 K, 100 kPa, x1 = 0.2005",111.2 ± 3.7 mPa·s
same,viscosity,"298.15 K, 100 kPa, x1 = 0.2005",83.7 ± 2.3 mPa·s
same,viscosity,"303.15 K, 100 kPa, x1 = 0.2005",64.32 ± 1.5 mPa·s
same,viscosity,"308.15 K, 100 kPa, x1 = 0.2005",50.24 ± 1.1 mPa·s
same,viscosity,"313.15 K, 100 kPa, x1 = 0.2005",40.12 ± 0.94 mPa·s
same,viscosity,"318.15 K, 100 kPa, x1 = 0.2005",32.53 ± 0.76 mPa·s
same,viscosity,"323.15 K, 100 kPa, x1 = 0.2005",26.79 ± 0.63 mPa·s
